A short description of data set [1]: solubility in common solvents. The class given is physicochemical. Particulars: chloroform, acetone, THF, ethanol, methanol, DMF or DMSO. As for the experimental part: The compound obtained by means of the aforementioned method is in the form of a dark green crystal, and the yield thereof is 82 mg (16,14%). The closed formula of Compound 2, which has a melting point >300°C is C89H99InN8O6, and its molecular weight is 1491,61 g/mol. It has been determined that C, 71.66; H, 6.69; […]; N, 7.51; O, 6.44 when the theoretical elemental analysis of the compound was performed. FTIR analysis was conducted in order to shed light upon the structure of said Compound 2 and it is illustrated in Figure 3. […] Table 1. The solubility data of the In(III) Pc compound.

Data set [2] has as its system HeLa cells. Put plainly: cell index, real-time cell analysis system. The class given is cell-based, human. The settings on record: 72 hours. On the procedure:
In the present invention, the cell index parameter was evaluated by means of using a real-time cell analysis system in order to both support the results obtained and to determine the types of cell death, and an E-Plate with 16 wells was used in order to evaluate this parameter. Primarily, 100 µl of growth medium was added to each well of the E-Plate, and background measurements were taken in the cell analyzer device. Then, cultivation is performed in each well such that the 100 µl of growth medium has 6000 cells for HeLa cells. The E-Plates were incubated for 20 minutes in a sterile working cabinet at room temperature, and then placed in the cell analyzer device and incubation was continued at 37°C under ambient conditions of 5% carbon dioxide (CO2) after the cultivation process. The cell analyzer was issued a command to take the measurement every 15 minutes after the cell cultivation to the E-Plates was performed. After approximately 24 hours of cell cultivation, the growth medium in the E-Plates was changed with a growth medium containing different concentrations of In(III)Pc complex at the 1/3rd slice of the proliferation phase of the cells, and measurements were continued at 15-minute intervals for 72 hours. Subsequently, graphics of concentration and time-dependent cell index values were transferred to the computer screen. The antiproliferative effects of the In(III)Pc complex on HeLa cells are observed when the cell index values obtained from the real-time cell analysis system are examined.

A short description of data set [3]: singlet oxygen quantum yield (DPBF quencher, ZnPc standard). Format: physicochemical. The settings on record: irradiated in the Q band area, room conditions, Figure 7. On the procedure:
Singlet oxygen quantum yields of the inventive Compound 2 were calculated by means of Zinc (II) phthalocyanine (ZnPc) standard and 1,3-diphenylisobenzofuran (DPBF) singlet oxygen quencher at room conditions via using Equation-2 below: ΦΔ = ΦΔ^Std .(RDPBF .Iabs^Std)/(RDPBF^Std .Iabs) [formula] wherein, • Φ^StdΔ; the singlet oxygen yield (ZnPc ΦΔ = 0,53 in THF) • ΦΔ; for example, singlet oxygen yield, • RDPBF; the degradation rate of DPBF in the presence of the sample, • ROPBFstd; the degradation rate of DPBF in the presence of the standard, • Iabs; the light absorption rate of sample and standard, • IabStd; the light absorption rate of the standard.
DPBF with a concentration of […] was used in order to prevent chain reactions caused by the presence of singlet oxygen. Solutions of a sensitizer containing DPBF (absorbance at irradiation wavelength = 2.0) were prepared in a dark environment and irradiated in the Q band area by means of using the setup described above. This yield was found as 49%, according to Figure 7. […]

Data set [4] concerns HeLa cells. Put plainly: mitotic index (Feulgen method, Giemsa staining). Format: cell-based, human. Particulars: 100 µM. On the procedure:
As a result of applying the optimum concentration of the product(100 µM) on HeLa cells for 0-72 hours, the preparations prepared according to the experimental groups were primarily hydrolyzed with 1 N hydrochloric acid (HCl) at room temperature for 1 minute and then with 1 N HCl at 60°C for 10 minutes in order to determine the effects on the mitotic index values of the cells. After hydrolysis, the Feulgen method was applied to the preparations for 1 hour. Then, these preparations were washed 3 times for 2 minutes with a washing solution, which is specific to the Feulgen method, and air-dried. After the preparations were dried, they were prepared for counting by means of staining with Giemsa dye for 2 minutes. Late prophase, metaphase, anaphase, and telophase stages were counted in order to determine the mitosis index (MI) values of said preparations. The early prophase stage was evaluated together with this stage, as it was morphologically similar to the cells in the interphase group.
Three preparations were evaluated for each experimental group and mitosis index values were determined by means of counting 3000 cells on average from each preparation. The mitosis index values have been decreased from 6% to 3,7% at the 24th hour; from 6,68% to 2,21% at the 48th hour, and from 7,56% to 1,19% at the 72nd hour.

For data set [5], the system named is HeLa cells. Description: proliferation rate analysis (MTT, mitochondrial dehydrogenase enzyme activity). The class given is cell-based, human. Particulars: for absorbance values / viability of cells: 24 hours; for absorbance values: MTT, 570 nm with reference to 690 nm, control group 590×10^-3; for viability of cells: control group considered 100%. On the procedure: Different concentrations of In(III)Pc complex were applied to cultured human cervical cancer originated HeLa cells for 24 hours in order to determine the changes in mitochondrial dehydrogenase enzyme activity of cancer cells by means of the In(III)Pc complex obtained. For proliferation rate analysis, routinely cultured HeLa cells were cultivated in culture plates with 96 wells such that the growth medium is 3×10^4 cell/ml per well. In(III)Pc complex prepared at 50 µM, 100 µM, and 150 µM concentrations were applied to the cells after waiting for the cells to adhere and spread. The growth medium in the wells was withdrawn and 40 µl of 3-(4,5-dimethylthiazol-2-yl)-2,5-diphenyltetrazolium bromide (MTT) (5mg/ml) was added at the end of the experiment periods. 160 µl of dimethyl sulfoxide (DMSO) was added to the wells with MTT and incubated for 1 hour in a shaker incubator after waiting for approximately 4 hours. The absorbance values of the formed experimental groups were carried out by means of the spectrophotometer measurements at 570 nm with reference to the 690 nm wavelength after the formazan crystals formed are dissolved for the 1 hour incubation period. The absorbance values obtained as a result of this application were measured as 590×10^-3 for the control group; 460 ×10^-3 for 50 µM; 280 ×10^-3 for 100 µM, and 170 ×10^-3 for 150 µM.

Data set [6] can be described thus: photodegradation quantum yield under irradiation. Format: physicochemical. On the procedure: DPBF with a concentration of […] was used in order to prevent chain reactions caused by the presence of singlet oxygen. Solutions of a sensitizer containing DPBF (absorbance at irradiation wavelength = 2.0) were prepared in a dark environment and irradiated in the Q band area by means of using the setup described above. This yield was found as 49%, according to Figure 7. The maximum absorbance of the Q band in the solutions of all complexes was set to 1.0 in the solvent used in order to determine the photodegradation quantum yield (Φd), and the decrease in the intensity of the Q band under irradiation with time is observed by means of using the following Equation-3: Φd = ((C0−Ct).V.NA)/(Iabs .S.t) [formula] wherein, • C0 (mol.dm^-3); concentration of Compound 2 before irradiation, • Ct (mol.dm^-3); concentration of Compound 2 […]; reaction volume (3.0 cm^3), • S; irradiated cell area, • t; irradiation time, • NA; Avogadro's number, • Iabs; the overlapping integration of the radiation source intensity. […] It has been observed that Compound 2 is active in destroying cancer cells, and as such may have a potential for the treatment of cancer with PDT when considering the PDT characteristic measurement results described above.

For data set [7] the following is noted: standard, in THF; cited from earlier work.

“1,8(11), 15(18),22(25)-tetra-(3,5-di-tert-butylphenoxy) indium (III) phthalocyanine [Compound 2]”: the solubility result in data set [1] is reported as “capable of getting dissolved in common solvents”. Also, the “effect on cell index values compared with standard curves” value in the data set with HeLa cells [2] (50 µM) was “does not show a significant effect”; in the data set with HeLa cells [2] (100 µM (optimum concentration)), “DNA damaging effect”; in the data set with HeLa cells [2] (100 µM (optimum concentration), listed as In(III)Pc complex), “DNA damage”; in the data set with HeLa cells [2] (150 µM), “cytoskeletal effect”. In data set [3], this compound had a singlet oxygen yield of 49%. Besides, the mitosis index values in the data set on HeLa cells [4] (24th hour, decreased from 6%) was 3,7%; with HeLa cells [4] (48th hour, decreased from 6,68%) it was 2,21%; in the data set on HeLa cells [4] (72nd hour, decreased from 7,56%), 1,19%. In addition, the values for the absorbance values with HeLa cells [5] (50 µM), in the data set with HeLa cells [5] (100 µM) and in the data set on HeLa cells [5] (150 µM) were 460 ×10^-3, 280 ×10^-3 and 170 ×10^-3, respectively. Also, the viability of cells in the data set with HeLa cells [5] (50 µM) came out at 78%; in the data set with HeLa cells [5] (100 µM), 47.45%; in the data set on HeLa cells [5] (150 µM), 28.81%. For the same compound, in the data set with HeLa cells [5] (100 µM), the “death of the cells” value came to 52.55%. In addition, in the data set with HeLa cells [5] (HeLa cells, read-out: IC50 concentration), the IC50 worked out at 100 µM. Besides, the “photodegradation quantum yield (Φd)” value in data set [6] (Q band absorbance set to 1.0, irradiation with time) is given as 2,0017×10^-05. Besides, in data set [6] (from the photodegradation quantum yield), the “stability under the light” value is listed as “stable under the light”.
Take `[Zn+2].c1ccc2c(c1)-c1nc-2nc2[n-]c(nc3nc([n-]c4nc(n1)-c1ccccc1-4)-c1ccccc1-3)c1ccccc21` [ZnPc, Zinc (II) phthalocyanine]: the “singlet oxygen yield ΦΔ” value in data set [7] is listed as 0,53.

The values above are taken from patent publication EP4048709B1, “A DRUG FOR THE TREATMENT OF CERVICAL CANCER” (Yildiz Teknik Universitesi, priority 2020, dated 2022).
